Several values for one entry are separate records, joined by “and”; a condition that tells them apart may be missing. Identical values can stand only once. Like-named read-outs stand apart in the source and are kept apart here.
Key:
[1] = test system: human hepatoma cell plc/prf/5; experiment: Anti-tumor effect on xenograft tumor model of plc/prf/5 in nude mice (Example 6); details: for T/C (%) RTV / T/C (%) TW: vs physiological saline; for RTV / Tumor weight: 38th day, Mean ± SEM; for Tumor volume: mean ± SE
Text: (§1) The tumor cells were passaged with digestion by trypsin-EDTA twice a week. The cells in the exponential growth phase were collected, counted, and used for inoculation.
10 days later the mean tumor volume was desired to reach about 161 mm^3, the mice with a smaller or larger tumor were removed and the remaining 24 mice were divided into groups randomly according to tumor volume and administrated.
Wherein QW×4W represents intravenous injection once a week for 4 weeks, BIW×4W represents intravenous injection once every two weeks for 4 weeks, the same below.

[2] = test system: Calu-6 human lung cancer cell; experiment: Anti-tumor effect on xenograft tumor model of Calu-6 in nude mice (Example 9); details: for T/C (%) RTV / T/C (%) TW: vs physiological saline; for RTV / Tumor weight: 42nd day, Mean ± SEM; for Tumor volume: mean ± SE;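 as to all read-outs here: each nude mouse received 5.0×10^6 Calu-6 cells implanted at the right shoulder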
Experimental: Calu-6 cells were cultured with a monolayer in vitro in MEM medium supplied with heat-inactivated fetal bovine serum with a volume ratio of 10%, and an incubator at 37° C. with the air containing CO2 with a proportion of 5%. The tumor cells were passaged with digestion by trypsin-EDTA twice a week. The cells in the exponential growth phase were collected, counted, and used for inoculation.
5.0×10^6 of Calu-6 tumor cells were suspended in 0.1 ml of PBS, inoculated to each nude mouse at the right shoulder, and there were totally 34 mice inoculated.

[3] = test system: H460 human non-small cell lung cancer cells; details: for T/C (%) RTV / T/C (%) TW: vs physiological saline; for RTV / Tumor weight: 29th day, Mean ± SEM; for Tumor volume: mean ± SE
Experimental: as §1
5.0×10^6 of H460 tumor cells were suspended in 0.1 ml of PBS, inoculated to each nude mouse at the right shoulder, and there were totally 34 mice inoculated. 8 days later the mean tumor volume was desired to reach about 143 mm^3, the mice with a smaller or larger tumor were removed and the remaining 24 mice were divided into groups randomly according to tumor volume and administrated.

[4] = day 17 after inoculation, 30 mg/kg i.v. BIW×4W
[5] = day 17 after inoculation, 45 mg/kg i.v. QW×4W
[6] = day 24 after inoculation, 30 mg/kg i.v. BIW×4W
[7] = day 24 after inoculation, 45 mg/kg i.v. QW×4W
[8] = day 31 after inoculation, 30 mg/kg i.v. BIW×4W
[9] = day 31 after inoculation, 45 mg/kg i.v. QW×4W

With “monomethoxy polyethylene glycol (20K)-glutamic acid dipeptide-rapamycin conjugate [LPR-2]” the “TGD (to 1,000 mm^3)” value ([1]; 30 mg/kg i.v. BIW×4W) was greater than 12, the “T/C (%) RTV” value ([1]; 30 mg/kg i.v. BIW×4W) was 29% and the “T/C (%) TW” value ([1]; 30 mg/kg i.v. BIW×4W) was 27%. The “TGD (to 1,000 mm^3)” value ([1]; 45 mg/kg i.v. QW×4W) was greater than 12, the “T/C (%) RTV” value ([1]; 45 mg/kg i.v. QW×4W) was 46% and the “T/C (%) TW” value ([1]; 45 mg/kg i.v. QW×4W) was 45%. The “anti-tumor effect (in words)” value ([1]; 5-FU 25 mg/kg, LPR-2 30 and 45 mg/kg) was “significant anti-tumor effect”, the RTV ([1]; 30 mg/kg i.v. BIW×4W) was 3.48 ± 0.68 and the Tumor weight ([1]; 30 mg/kg i.v. BIW×4W) was 517 ± 67 mg. It also gave an RTV ([1]; 45 mg/kg i.v. QW×4W) of 5.61 ± 0.67, a Tumor weight ([1]; 45 mg/kg i.v. QW×4W) of 845 ± 87 mg and a Tumor volume ([1]; day 10 after inoculation, 30 mg/kg i.v. BIW×4W) of 171 ± 15 mm^3. The Tumor volume ([1]; day 10 after inoculation, 45 mg/kg i.v. QW×4W) was 171 ± 19 mm^3, the Tumor volume ([1]; day 13 after inoculation, 30 mg/kg i.v. BIW×4W) was 176 ± 11 mm^3 and the Tumor volume ([1]; day 13 after inoculation, 45 mg/kg i.v. QW×4W) was 180 ± 25 mm^3. The Tumor volume [1, 4] was 217 ± 25 mm^3, the Tumor volume [1, 5] was 234 ± 28 mm^3 and the Tumor volume ([1]; day 20 after inoculation, 30 mg/kg i.v. BIW×4W) was 260 ± 30 mm^3. It also gave a Tumor volume ([1]; day 20 after inoculation, 45 mg/kg i.v. QW×4W) of 257 ± 24 mm^3, a Tumor volume [1, 6] of 303 ± 32 mm^3 and a Tumor volume [1, 7] of 399 ± 25 mm^3. The Tumor volume ([1]; day 27 after inoculation, 30 mg/kg i.v. BIW×4W) was 317 ± 42 mm^3, the Tumor volume ([1]; day 27 after inoculation, 45 mg/kg i.v. QW×4W) was 496 ± 39 mm^3 and the Tumor volume [1, 8] was 395 ± 39 mm^3. It also gave a Tumor volume [1, 9] of 607 ± 60 mm^3, a Tumor volume ([1]; day 34 after inoculation, 30 mg/kg i.v. BIW×4W) of 437 ± 44 mm^3 and a Tumor volume ([1]; day 34 after inoculation, 45 mg/kg i.v. QW×4W) of 640 ± 93 mm^3. The Tumor volume ([1]; day 38 after inoculation, 30 mg/kg i.v. BIW×4W, 30 mg/kg) was 553 mm^3 and 553 ± 63 mm^3, the “TGD (to 1,000 mm^3)” value ([2]; 30 mg/kg i.v. BIW×4W) was greater than 8 and the “T/C (%) RTV” value ([2]; 30 mg/kg i.v. BIW×4W) was 31%. For the same substance, the “T/C (%) TW” value ([2]; 30 mg/kg i.v. BIW×4W) was 28%, the “TGD (to 1,000 mm^3)” value ([2]; 45 mg/kg i.v. QW×4W) was greater than 8 and the “T/C (%) RTV” value ([2]; 45 mg/kg i.v. QW×4W) was 38%. The “T/C (%) TW” value ([2]; 45 mg/kg i.v. QW×4W) was 37%, the RTV ([2]; 30 mg/kg i.v. BIW×4W) was 4.39 ± 0.59 and the Tumor weight ([2]; 30 mg/kg i.v. BIW×4W) was 449 ± 89 mg. For the same substance, the RTV ([2]; 45 mg/kg i.v. QW×4W) was 5.41 ± 0.51, the Tumor weight ([2]; 45 mg/kg i.v. QW×4W) was 602 ± 83 mg and the Tumor volume ([2]; day 14 after inoculation, 30 mg/kg i.v. BIW×4W) was 139 ± 18 mm^3. For the same substance, the Tumor volume ([2]; day 14 after inoculation, 45 mg/kg i.v. QW×4W) was 137 ± 22 mm^3, the Tumor volume [2, 4] was 160 ± 25 mm^3 and the Tumor volume [2, 5] was 152 ± 25 mm^3. It also gave a Tumor volume ([2]; day 21 after inoculation, 30 mg/kg i.v. BIW×4W) of 201 ± 40 mm^3, a Tumor volume ([2]; day 21 after inoculation, 45 mg/kg i.v. QW×4W) of 204 ± 38 mm^3 and a Tumor volume [2, 6] of 241 ± 50 mm^3. The Tumor volume [2, 7] was 245 ± 40 mm^3, the Tumor volume ([2]; day 28 after inoculation, 30 mg/kg i.v. BIW×4W) was 274 ± 57 mm^3 and the Tumor volume ([2]; day 28 after inoculation, 45 mg/kg i.v. QW×4W) was 293 ± 44 mm^3. The Tumor volume [2, 8] was 335 ± 76 mm^3, the Tumor volume [2, 9] was 323 ± 45 mm^3 and the Tumor volume ([2]; day 35 after inoculation, 30 mg/kg i.v. BIW×4W) was 422 ± 108 mm^3. It also gave a Tumor volume ([2]; day 35 after inoculation, 45 mg/kg i.v. QW×4W) of 436 ± 74 mm^3, a Tumor volume ([2]; day 38 after inoculation, 30 mg/kg i.v. BIW×4W) of 504 ± 119 mm^3 and a Tumor volume ([2]; day 38 after inoculation, 45 mg/kg i.v. QW×4W) of 518 ± 87 mm^3. For the same substance, the Tumor volume ([2]; day 42 after inoculation, 30 mg/kg i.v. BIW×4W, 30 mg/kg) was 627 ± 145 mm^3, the Tumor volume ([2]; day 42 after inoculation, 45 mg/kg i.v. QW×4W, 45 mg/kg) was 720 ± 106 mm^3 and the “TGD (to 1,000 mm^3)” value ([3]; 30 mg/kg i.v. BIW×3W) was greater than 9. For the same substance, the “T/C (%) RTV” value ([3]; 30 mg/kg i.v. BIW×3W) was 22%, the “T/C (%) TW” value ([3]; 30 mg/kg i.v. BIW×3W) was 23% and the “TGD (to 1,000 mm^3)” value ([3]; 45 mg/kg i.v. QW×3W) was greater than 9. For the same substance, the “T/C (%) RTV” value ([3]; 45 mg/kg i.v. QW×3W) was 25%, the “T/C (%) TW” value ([3]; 45 mg/kg i.v. QW×3W) was 25% and the RTV ([3]; 30 mg/kg i.v. BIW×3W) was 3.43 ± 0.32. It also gave a Tumor weight ([3]; 30 mg/kg i.v. BIW×3W) of 364 ± 54 mg, an RTV ([3]; 45 mg/kg i.v. QW×3W) of 3.86 ± 0.42 and a Tumor weight ([3]; 45 mg/kg i.v. QW×3W) of 406 ± 60 mg. For the same substance, the Tumor volume ([3]; day 8 after inoculation, 30 mg/kg i.v. BIW×3W) was 143 ± 16 mm^3, the Tumor volume ([3]; day 8 after inoculation, 45 mg/kg i.v. QW×3W) was 143 ± 18 mm^3 and the Tumor volume ([3]; day 12 after inoculation, 30 mg/kg i.v. BIW×3W) was 213 ± 40 mm^3. It also gave a Tumor volume ([3]; day 12 after inoculation, 45 mg/kg i.v. QW×3W) of 194 ± 33 mm^3, a Tumor volume ([3]; day 15 after inoculation, 30 mg/kg i.v. BIW×3W) of 208 ± 44 mm^3 and a Tumor volume ([3]; day 15 after inoculation, 45 mg/kg i.v. QW×3W) of 260 ± 46 mm^3. The Tumor volume ([3]; day 19 after inoculation, 30 mg/kg i.v. BIW×3W) was 259 ± 50 mm^3, the Tumor volume ([3]; day 19 after inoculation, 45 mg/kg i.v. QW×3W) was 282 ± 46 mm^3 and the Tumor volume ([3]; day 22 after inoculation, 30 mg/kg i.v. BIW×3W) was 343 ± 67 mm^3. The Tumor volume ([3]; day 22 after inoculation, 45 mg/kg i.v. QW×3W) was 346 ± 53 mm^3.

— patent publication US10098870B2 (JENKEM TECHNOLOGY CO., LTD. (BEIJING), priority 2013, dated 2018)
